Results from patent US5498609A, “Benzoazepinyl compounds as oxytocin and vasopressin antagonists” (Otsuka Pharmaceutical Company, Limited, priority 1992, dated 1996).

Columns and labels:
V1 receptor = V1 receptor (Rattus norvegicus, UniProt P30560); assay: biochemical; conditions: rat liver plasma membrane, [3H]-Arg-vasopressin, 37° C., 10 minutes, pH 8.0; read-out: IC50 in V1 receptor binding assay
Protocol: Experiment 1: V1 receptor binding assay
Using rat liver plasma membrane preparations prepared according to Ichihara's method [cf: Akira Ichihara, J. Bio. Chem., 258, 9283 (1983)], the plasma membrane (50000 dpm, 2×10^-10 M) of [^3 H]-Arg-vasopressin and a test compound (60 μg, 10^-8 to 10^-4 M) are incubated at 37° C. for 10 minutes in 100 mM Tris-HCl buffer (pH: 8.0) (250 μl) containing 5 mM MgCl2, 1 mM EDTA and 0.1% BSA. After incubation, the mixture is filtered three times using the glass filter (GF/F) so as to separate the membrane preparation binding with vasopressin and then washed with the buffer (5 ml). This glass filter is taken out and mixed with liquid scintillation cocktail. The amount of [^3 H]-vasopressin binding with the membrane is measured by liquid scintillation counter and the rate of the inhibitory effect of the test compound is estimated according to the following equation. [formula] C1 : The amount of [^3 H]-vasopressin binding with the membrane in the presence of the test compound (known amount)
(§1) C0 : The amount of [^3 H]-vasopressin binding with the membrane in the absence of the test compound
(§2) B1 : The amount of [^3 H]-vasopressin binding with the membrane in the presence of the excess amount of vasopressin (10^-6 M)
(§3) The results are expressed as IC50 value, which is the concentration of the test compound required to achieve the inhibitory effect in the rate of 50%.

V2 receptor = biological target: T1, V2 receptor (Rattus norvegicus, UniProt Q00788); assay: biochemical; conditions: rat kidney plasma membrane, [3H]-Arg-vasopressin, 4° C., pH 8.0, read-out: IC50 in V2 receptor binding assay
T1 construct: Using rat kidney plasma membrane preparations; from tissue; host or cells: rat kidney plasma membrane
Protocol: Experiment 2: V2 receptor binding assay
Using rat kidney plasma membrane preparations prepared according to O. Hechter's method [cf: J. Bio. Chem., 253, 3211 (1978)], the plasma membrane (100000 dpm, 4×10^-10 M) of [^3 H]-Arg-vasopressin and a test compound (0.6 mg, 10^-10 to 10^-5 M) are incubated at 4° C. for 3 hours in 100 mM Tris-HCl buffer (pH: 8.0) (250 μl) containing 5 mM MgCl2, 1 mM EDTA and 0.1% BSA. After incubation, the mixture is filtered using the glass filter (GF/F) so as to separate the membrane preparation binding with vasopressin and then washed twice with the buffer (each 5 ml). This glass filter is taken out and mixed with liquid scintillation cocktail. The amount of [^3 H]-vasopressin binding with the membrane is measured by liquid scintillation counter and the rate of the inhibitory effect of the test compound is estimated according to the following equation. [formula] C1 : The amount of [^3 H]-vasopressin binding with the membrane in the presence of the test compound (known amount)
as §1, §2, §3

Chain of V1 receptor (P30560 whole entry): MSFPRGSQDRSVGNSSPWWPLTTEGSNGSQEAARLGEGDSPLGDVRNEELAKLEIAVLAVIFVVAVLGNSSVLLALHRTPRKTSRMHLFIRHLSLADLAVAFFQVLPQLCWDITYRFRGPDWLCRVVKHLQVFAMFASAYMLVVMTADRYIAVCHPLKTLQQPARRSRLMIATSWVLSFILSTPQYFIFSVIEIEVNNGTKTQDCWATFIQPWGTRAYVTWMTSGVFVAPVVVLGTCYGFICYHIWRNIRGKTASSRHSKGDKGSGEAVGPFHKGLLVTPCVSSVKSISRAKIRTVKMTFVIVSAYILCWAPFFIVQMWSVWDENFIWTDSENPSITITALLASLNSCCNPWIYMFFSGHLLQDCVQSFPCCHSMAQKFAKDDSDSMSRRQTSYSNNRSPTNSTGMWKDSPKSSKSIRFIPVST
T1 sequence (Q00788 whole entry): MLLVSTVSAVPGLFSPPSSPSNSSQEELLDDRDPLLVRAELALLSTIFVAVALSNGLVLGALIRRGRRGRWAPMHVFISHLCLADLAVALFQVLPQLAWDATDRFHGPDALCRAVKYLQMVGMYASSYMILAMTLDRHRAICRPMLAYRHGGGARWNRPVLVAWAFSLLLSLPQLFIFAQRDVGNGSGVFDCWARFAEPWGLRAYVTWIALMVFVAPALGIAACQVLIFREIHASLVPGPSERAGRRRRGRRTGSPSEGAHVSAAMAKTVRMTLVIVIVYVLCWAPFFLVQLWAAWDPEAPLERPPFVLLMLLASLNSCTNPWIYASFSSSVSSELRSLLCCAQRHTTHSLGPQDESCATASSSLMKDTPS

| SMILES | IC50 (V1 receptor) [nM] | IC50 (V2 receptor) [nM] |
| --- | --- | --- |
| Cc1cccc(C(=O)Nc2ccc(C(=O)N3CCCC(O)c4cc(Cl)ccc43)cn2)c1 (stereo not shown) [Compound of Ex. 26] | 78 | 21 |
| CC(=O)NCCC1CCCN(C(=O)c2ccc(NC(=O)c3ccccc3C)nc2)c2ccc(Cl)cc21 (stereo not shown) [Compound of Ex. 143, 7-chloro-5-(2-acetylamino-ethyl)-1-[6-(2-methylbenzoylamino)nicotinoyl]-2,3,4,5-tetrahydro-1H-benzazepine] | 6.6 | 3.1 |
| O=C(Nc1ccc(C(=O)N2CCCC(O)c3cc(Cl)ccc32)cn1)C1CCCCC1 (stereo not shown) [Compound of Ex. 32] | 12 | 16 |
| CC(=O)N1CCN(CCC2CCCN(C(=O)c3ccc(NC(=O)c4ccccc4Cl)nc3)c3ccc(Cl)cc32)CC1 (stereo not shown) [Compound of Ex. 128] | 16 | 4.6 |
| Cc1ccccc1C(=O)Nc1ccc(C(=O)N2CCCC(CCn3cncn3)c3cc(Cl)ccc32)cn1 (stereo not shown) [Compound of Ex. 140] | 31 | 5.6 |
| Cc1ccccc1C(=O)Nc1ccc(C(=O)N2CCCC(OCC(=O)N3CCN(C)CC3)c3cc(Cl)ccc32)cn1 (stereo not shown) [Compound of Ex. 35] | 20 | 7 |
| Cc1ccccc1C(=O)Nc1ccc(C(=O)N2CCCC(OCCN3CCOCC3)c3cc(Cl)ccc32)cn1 (stereo not shown) [Compound of Ex. 182] | 28 | 10 |
| COC1CCCN(C(=O)c2ccc(NC(=O)c3ccccc3Br)nc2)c2ccc(Cl)cc21 (stereo not shown) [Compound of Ex. 73] | 12 | 1.9 |
| Cc1ccccc1C(=O)Nc1ccc(C(=O)N2CCCC(CC(=O)O)c3cc(Cl)ccc32)cn1 (stereo not shown) [Compound of Ex. 39] | 910 | 68 |
| CC(=O)N1CCN(CCOC2CCCN(C(=O)c3ccc(NC(=O)c4ccccc4Cl)nc3)c3ccc(Cl)cc32)CC1 (stereo not shown) [Compound of Ex. 181] | 15 | 4.4 |
| Cc1ccccc1C(=O)Nc1ccc(C(=O)N2CCC(O)Cc3cc(Cl)ccc32)cn1 (stereo not shown) [Compound of Ex. 148] | 27 | 17 |
| COc1ccccc1C(=O)Nc1ccc(C(=O)N2CCCC(O)c3cc(Cl)ccc32)cn1 (stereo not shown) [Compound of Ex. 28] | 77 | 170 |
| Cc1ccccc1C(=O)Nc1ccc(C(=O)N2CCCC(O)c3cc(Cl)ccc32)s1 (stereo not shown) [Compound of Ex. 48] | 67 | 300 |
| Cc1ccccc1C(=O)Nc1cnc(C(=O)N2CCCC(O)c3cc(Cl)ccc32)s1 (stereo not shown) [Compound of Ex. 49] | 41 | 250 |

Other lines, results leading:

| IC50 (V1 receptor) [nM] | IC50 (V2 receptor) [nM] | SMILES |
| --- | --- | --- |
| 24 | 5.3 | CN(C)C(=O)COC1CCCN(C(=O)c2ccc(NC(=O)c3ccccc3Cl)nc2)c2ccc(Cl)cc21 (stereo not shown) [Compound of Ex. 173] |
| 30 | 3 | Cc1ccccc1C(=O)Nc1ccc(C(=O)N2CCCC(CC(=O)N3CCN(C)CC3)c3cc(Cl)ccc32)cn1 (stereo not shown) [Compound of Ex. 42] |
| 41 | 3.7 | CNC1CCCN(C(=O)c2ccc(NC(=O)c3ccccc3C)nc2)c2ccc(Cl)cc21 (stereo not shown) [Compound of Ex. 79] |
| 34 | 12 | Cc1ccccc1C(=O)Nc1ccc(C(=O)N2CCCC(OC(=O)CN(C)C)c3cc(Cl)ccc32)cn1 (stereo not shown) [Compound of Ex. 189] |
| 22 | 4 | Cc1ccccc1C(=O)Nc1ccc(C(=O)N2CCCC(CC(=O)N(C)C)c3cc(Cl)ccc32)cn1 (stereo not shown) [Compound of Ex. 41] |
| 29 | 8 | Cc1ccccc1C(=O)Nc1ccc(C(=O)N2CCCC(OCCn3ccnc3)c3cc(Cl)ccc32)cn1 (stereo not shown) [Compound of Ex. 178] |
| 7.1 | 3.1 | NC(=O)COC1CCCN(C(=O)c2ccc(NC(=O)c3ccccc3Cl)nc2)c2ccc(Cl)cc21 (stereo not shown) [Compound of Ex. 171] |
| 31 | 4.8 | O=C(Nc1ccc(C(=O)N2CCCC(CCn3ccnc3)c3cc(Cl)ccc32)cn1)c1ccccc1Cl (stereo not shown) [Compound of Ex. 129] |
| 117 | 19 | O=C(O)COC1CCCN(C(=O)c2ccc(NC(=O)c3ccccc3Cl)nc2)c2ccc(Cl)cc21 (stereo not shown) [Compound of Ex. 169] |
